The text below walks through data of ChEMBL document CHEMBL1201862, “PubChem BioAssay data set” (2004).

For orientation: AC50 means the concentration at which the activity in the assay is half-maximal. As usually defined, the IC50 is the midpoint of a concentration-inhibition curve. Usually EC50 stands for the concentration giving half of the maximal effect.

Activity calls are given as the source filed them.

Experiment [1] has as its target FAD-linked sulfhydryl oxidase ALR (Homo sapiens, UniProt P55789). Description: inhibitors of human ALR sulfhydryl oxidase, dose response, biochemical, H2O2 detection, luminescence, cherry-pick (AID 493248).
The target in the next experiment is Nonstructural protein 1 (Influenza A virus, UniProt Q194T2). The class given is functional, Influenza A virus (A/California/07/2009(H1N1)).
Another experiment is described as follows: cells. The experiment is classed as functional.
Experiment [2] addresses T1, Heat shock factor protein 1 (Mus musculus, UniProt P38532).
T1 sequence (P38532 whole entry): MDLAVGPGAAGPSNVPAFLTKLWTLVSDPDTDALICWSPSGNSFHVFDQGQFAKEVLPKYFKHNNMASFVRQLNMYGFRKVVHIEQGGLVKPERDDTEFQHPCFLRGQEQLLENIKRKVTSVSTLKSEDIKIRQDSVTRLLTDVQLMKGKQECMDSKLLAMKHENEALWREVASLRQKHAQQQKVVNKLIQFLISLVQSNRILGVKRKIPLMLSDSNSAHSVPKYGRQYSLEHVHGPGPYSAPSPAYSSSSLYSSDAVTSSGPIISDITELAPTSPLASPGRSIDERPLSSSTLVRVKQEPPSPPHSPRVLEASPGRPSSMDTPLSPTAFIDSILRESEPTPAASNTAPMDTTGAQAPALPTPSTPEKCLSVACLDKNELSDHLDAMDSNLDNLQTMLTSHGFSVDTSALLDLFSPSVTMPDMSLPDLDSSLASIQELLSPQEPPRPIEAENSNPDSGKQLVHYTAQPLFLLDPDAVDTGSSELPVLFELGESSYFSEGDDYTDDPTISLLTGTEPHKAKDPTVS
Briefly: inhibition of MG132-induced HSE-luciferase signal, confirmation, cell-based, NIH3T3, luminescence, dose retest (AID 2382).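 Also: NIH3T3 fibroblasts with HSF1-driven luciferase reporter stressed by proteasome inhibitor MG132; luminescence from HSF1-driven luciferase expression after 8 hours of MG132 stress.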 The class given is functional.

Experiment [3] addresses T1, Heat shock factor protein 1. Description: HSF1 potentiators in luciferase reporter cells, confirmation, cell-based, NIH3T3, luminescence, dose retest (AID 435004).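 Also: stress induced by proteasome inhibitor MG132 added 30 min after compound; luciferase reporter driven by HSF1 response element in NIH3T3 cells; actives raise luminescence as potentiators of the MG132 stress response.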 The experiment is classed as functional. In general terms: Reporter assays use an easily measured gene product as a stand-in for the process of interest.
Experiment [4] is described as follows: inhibitors of firefly luciferase expression or activity, dose response, H4 neuroglioma cells, luminescence (AID 1990). The class given is functional, cell-based.
Experiment [5] is described as follows: Luminescence Cell-Based Dose Response HTS to Identify Inhibitors of 5'UTR Stem-Loop Driven Prion Protein mRNA Translation in H4 Neuroglioblastoma Cells. [Related pubchem assays: 1827 (Project Summary), 1813 (Primary HTS)]. The experiment is classed as functional.
Experiment [6] is described as follows: inhibitors of SNCA 5'UTR-driven reporter translation, confirmation, H4 neuroglioma cells, luminescence (AID 1988). The class given is functional, cell-based.
A short description of experiment [7]: Shn3 3'UTR reporter inhibitors, dose response, cell-based, Clone20 osteoblasts, firefly luciferase, cherry-picked (AID 624132).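 Also: firefly luciferase luminescence from reporter carrying the Shn3 3'UTR in osteoblasts.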 The class given is functional.
Experiment [8] can be described thus: HepG2 cell cytotoxicity, dose response, cytotoxicity control for Shn3 inhibitor project, CellTiter-Glo, cherry-picked (AID 624134). The experiment is classed as functional, cell-based.
The nature of experiment [9]: control 3'UTR Renilla luciferase suppression, dose response, counter-screen for Shn3 inhibitor project, cell-based, Clone20-Shn3RL, cherry-picked (AID 624133). The experiment is classed as functional. Background: A counterscreen serves to expose hits that act by an unwanted route or on another target.
Experiment [10] concerns the target Luciferin 4-monooxygenase (Photinus pyralis, UniProt P08659). Description: firefly luciferase enzyme inhibitors, dose response, biochemical, luminescence (AID 1891).
The nature of experiment [11]: Luminescence Cell-Based Dose Confirmation HTS to Identify Inhibitors of Platelet Dense Granule Release. [Related pubchem assays: 1663 (Primary HTS), 1678 (Summary of Project)]. The experiment is classed as functional.
Experiment [12] deals with Induced myeloid leukemia cell differentiation protein Mcl-1 (Homo sapiens, UniProt Q07820). The class given is functional.
Experiment [13] addresses T2, Replicative DNA helicase DnaB (Mycobacterium tuberculosis, UniProt P9WMR3).
T2 sequence (P9WMR3 whole entry): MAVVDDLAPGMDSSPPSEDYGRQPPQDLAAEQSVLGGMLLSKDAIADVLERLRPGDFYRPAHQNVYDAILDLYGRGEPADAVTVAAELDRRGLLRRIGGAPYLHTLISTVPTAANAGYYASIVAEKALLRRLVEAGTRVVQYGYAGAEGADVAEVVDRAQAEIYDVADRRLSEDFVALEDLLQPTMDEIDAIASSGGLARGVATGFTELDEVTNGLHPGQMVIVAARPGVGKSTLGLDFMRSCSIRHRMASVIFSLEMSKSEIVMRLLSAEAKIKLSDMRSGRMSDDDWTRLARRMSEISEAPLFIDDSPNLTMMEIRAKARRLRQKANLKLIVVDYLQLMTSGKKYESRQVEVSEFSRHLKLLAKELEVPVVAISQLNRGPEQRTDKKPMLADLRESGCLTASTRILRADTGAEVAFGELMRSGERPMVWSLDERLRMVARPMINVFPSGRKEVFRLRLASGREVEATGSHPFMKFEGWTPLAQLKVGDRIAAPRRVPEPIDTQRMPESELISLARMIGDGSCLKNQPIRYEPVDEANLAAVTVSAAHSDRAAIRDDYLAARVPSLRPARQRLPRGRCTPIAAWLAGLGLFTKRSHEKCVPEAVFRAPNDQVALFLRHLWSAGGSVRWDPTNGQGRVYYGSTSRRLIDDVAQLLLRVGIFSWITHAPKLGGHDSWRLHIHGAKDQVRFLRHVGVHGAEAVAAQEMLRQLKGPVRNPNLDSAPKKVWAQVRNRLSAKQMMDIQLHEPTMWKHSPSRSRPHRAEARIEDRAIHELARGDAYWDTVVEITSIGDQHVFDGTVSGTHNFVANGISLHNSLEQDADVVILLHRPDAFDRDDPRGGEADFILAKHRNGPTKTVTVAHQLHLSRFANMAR
Briefly: DnaB intein splicing inhibitors, dose response, biochemical, cell-free fluorescence (AID 449749). The class given is functional.

The target in a further experiment is T3, Protein RecA (Mycobacterium tuberculosis, UniProt P9WHJ3).
T3 sequence (P9WHJ3 whole entry): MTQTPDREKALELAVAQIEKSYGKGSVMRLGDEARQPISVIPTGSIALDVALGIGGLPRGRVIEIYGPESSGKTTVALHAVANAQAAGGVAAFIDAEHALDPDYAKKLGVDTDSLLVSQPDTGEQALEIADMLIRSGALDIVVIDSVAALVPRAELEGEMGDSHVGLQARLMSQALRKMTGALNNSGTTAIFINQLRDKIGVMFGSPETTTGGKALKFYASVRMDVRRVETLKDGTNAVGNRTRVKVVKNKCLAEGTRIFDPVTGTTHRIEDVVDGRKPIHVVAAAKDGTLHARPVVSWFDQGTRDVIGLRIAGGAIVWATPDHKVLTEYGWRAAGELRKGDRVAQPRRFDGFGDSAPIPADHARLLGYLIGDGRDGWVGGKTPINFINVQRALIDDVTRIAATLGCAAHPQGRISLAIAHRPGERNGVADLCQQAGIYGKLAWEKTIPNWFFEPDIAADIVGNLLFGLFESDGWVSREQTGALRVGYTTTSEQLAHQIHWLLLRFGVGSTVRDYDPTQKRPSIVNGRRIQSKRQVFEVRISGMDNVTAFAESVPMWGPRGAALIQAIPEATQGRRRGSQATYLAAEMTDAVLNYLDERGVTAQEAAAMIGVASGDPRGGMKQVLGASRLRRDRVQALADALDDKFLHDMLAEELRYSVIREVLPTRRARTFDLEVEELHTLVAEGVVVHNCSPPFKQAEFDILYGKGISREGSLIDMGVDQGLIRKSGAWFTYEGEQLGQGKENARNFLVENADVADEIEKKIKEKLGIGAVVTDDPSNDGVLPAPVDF
Description: Fluorescence Cell-Free Homogeneous Dose Retest to Identify Inhibitors of RecA-Intein Splicing Activity. [Related pubchem assays (depositor defined):AID2097, AID2223, AID489010, AID492950]. The class given is functional.

In another experiment the target is Cytochrome P450 3A4 (Homo sapiens, UniProt P08684).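 Also: CYP3A4 tested as one member of a cytochrome P450 panel screen.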
Another experiment deals with Cytochrome P450 2C19 (Homo sapiens, UniProt P33261). Description: Cytochrome panel assay with activity outcomes. Panel member name: p450-cyp2c19 Compounds with AC50 equal or less than 10 uM are considered active. The class given is functional. Conditions: read-out: AC50.
Chain of Cytochrome P450 2C19 (P33261 whole entry): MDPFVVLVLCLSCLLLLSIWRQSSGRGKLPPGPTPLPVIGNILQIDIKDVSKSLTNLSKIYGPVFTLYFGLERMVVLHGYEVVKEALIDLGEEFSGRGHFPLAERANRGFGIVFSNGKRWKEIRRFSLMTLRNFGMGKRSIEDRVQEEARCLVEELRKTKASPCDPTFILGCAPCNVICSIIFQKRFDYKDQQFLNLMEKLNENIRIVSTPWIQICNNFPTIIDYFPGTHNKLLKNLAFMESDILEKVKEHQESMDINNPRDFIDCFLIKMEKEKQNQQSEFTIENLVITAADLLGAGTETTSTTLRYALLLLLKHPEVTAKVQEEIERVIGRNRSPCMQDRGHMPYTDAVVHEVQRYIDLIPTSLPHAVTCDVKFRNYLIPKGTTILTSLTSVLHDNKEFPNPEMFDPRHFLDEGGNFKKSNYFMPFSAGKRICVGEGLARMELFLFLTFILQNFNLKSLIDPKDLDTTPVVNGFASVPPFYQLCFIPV

Chain of FAD-linked sulfhydryl oxidase ALR (P55789 whole entry): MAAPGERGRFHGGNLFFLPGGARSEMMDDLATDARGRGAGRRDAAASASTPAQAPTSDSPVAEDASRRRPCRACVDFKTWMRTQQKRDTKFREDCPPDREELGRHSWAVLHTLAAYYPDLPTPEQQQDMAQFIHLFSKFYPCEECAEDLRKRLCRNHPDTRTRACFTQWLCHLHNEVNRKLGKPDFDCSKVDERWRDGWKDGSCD
Chain of Luciferin 4-monooxygenase (P08659 whole entry): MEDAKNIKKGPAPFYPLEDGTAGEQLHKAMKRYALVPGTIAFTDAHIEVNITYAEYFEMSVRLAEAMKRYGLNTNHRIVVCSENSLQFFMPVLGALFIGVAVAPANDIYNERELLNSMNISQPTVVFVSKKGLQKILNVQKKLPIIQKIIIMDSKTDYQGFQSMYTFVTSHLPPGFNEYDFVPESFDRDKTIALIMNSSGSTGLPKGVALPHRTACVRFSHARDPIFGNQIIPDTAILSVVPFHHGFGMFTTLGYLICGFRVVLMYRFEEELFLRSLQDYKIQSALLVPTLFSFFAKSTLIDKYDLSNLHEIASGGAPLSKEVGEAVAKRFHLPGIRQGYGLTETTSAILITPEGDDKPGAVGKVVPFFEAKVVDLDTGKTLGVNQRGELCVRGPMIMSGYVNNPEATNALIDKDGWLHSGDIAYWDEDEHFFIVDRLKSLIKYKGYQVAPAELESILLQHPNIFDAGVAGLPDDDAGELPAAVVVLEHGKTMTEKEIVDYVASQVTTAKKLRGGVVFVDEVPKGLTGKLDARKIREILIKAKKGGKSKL
Chain of Nonstructural protein 1 (Q194T2 whole entry): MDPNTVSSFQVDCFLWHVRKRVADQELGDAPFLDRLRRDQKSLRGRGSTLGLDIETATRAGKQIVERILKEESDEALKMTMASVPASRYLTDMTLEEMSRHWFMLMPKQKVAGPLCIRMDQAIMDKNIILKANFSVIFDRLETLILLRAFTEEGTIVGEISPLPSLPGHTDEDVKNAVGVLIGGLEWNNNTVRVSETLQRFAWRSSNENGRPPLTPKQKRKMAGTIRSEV
Chain of Induced myeloid leukemia cell differentiation protein Mcl-1 (Q07820 whole entry): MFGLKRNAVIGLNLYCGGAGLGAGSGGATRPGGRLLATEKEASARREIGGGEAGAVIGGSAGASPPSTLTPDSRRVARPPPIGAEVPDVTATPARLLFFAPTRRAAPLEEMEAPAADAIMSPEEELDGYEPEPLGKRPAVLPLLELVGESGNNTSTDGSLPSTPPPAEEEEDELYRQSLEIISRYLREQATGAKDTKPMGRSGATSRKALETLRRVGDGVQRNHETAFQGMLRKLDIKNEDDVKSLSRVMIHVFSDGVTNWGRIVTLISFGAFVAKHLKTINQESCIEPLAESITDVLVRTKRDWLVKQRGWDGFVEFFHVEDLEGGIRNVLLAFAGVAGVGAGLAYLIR
Chain of Cytochrome P450 3A4 (P08684 whole entry): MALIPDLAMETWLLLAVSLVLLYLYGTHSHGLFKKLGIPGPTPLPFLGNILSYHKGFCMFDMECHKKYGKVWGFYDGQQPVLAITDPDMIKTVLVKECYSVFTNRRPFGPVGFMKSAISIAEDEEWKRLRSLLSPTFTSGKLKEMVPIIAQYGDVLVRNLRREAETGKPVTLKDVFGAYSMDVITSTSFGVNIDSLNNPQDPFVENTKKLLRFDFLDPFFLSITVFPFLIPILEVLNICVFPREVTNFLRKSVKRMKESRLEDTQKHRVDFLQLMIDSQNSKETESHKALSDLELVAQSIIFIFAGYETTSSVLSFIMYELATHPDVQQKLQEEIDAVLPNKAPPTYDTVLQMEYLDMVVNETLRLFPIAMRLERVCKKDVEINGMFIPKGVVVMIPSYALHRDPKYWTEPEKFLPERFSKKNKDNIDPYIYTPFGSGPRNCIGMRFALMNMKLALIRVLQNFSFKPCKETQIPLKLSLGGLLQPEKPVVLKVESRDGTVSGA

Take `C=CCn1c(S)nnc1-c1ccccc1[N+](=O)[O-]`: the AC50 in experiment [1] is 1.69 µM (active).

For the molecule `CN(C)c1ccc(C2CC(c3cccc(NS(C)(=O)=O)c3)=NN2C(=O)c2ccccc2)cc1` (stereo not given), the IC50 on Nonstructural protein 1 is > 100 µM (active).

`CC1=NN(C(=O)c2csc(C)c2C)C(O)(C(F)(F)F)C1` (stereo not given): in “cells”, the IC50 is 42.3 µM (active).

Turning to `COc1cccc(N2CCN(Cc3nnnn3C3CCCCC3)CC2)c1`, the EC50 in [2] was > 195 µM (not active). Moreover, the AC50 in [1] was 5.12 µM (active).

On to `Cc1ccccc1-n1c(C)cc(/C=N/NC(=O)c2ccncc2)c1C`, for which, in “cells”, the IC50 is 0.18 µM (active).

`COCc1cc(CN2CCCC(C(=O)Nc3ccc(-c4ccco4)cc3)C2)ccc1OC` (stereo not given): the EC50 in experiment [3] is > 260 µM (inactive).

For `Cc1occc1C(=O)N1CCCC(Nc2ccc(C(C)C)cc2)C1` (stereo not given), the AC50 in experiment [1] was 3.97 µM (active).

`O=C(CSc1n[nH]c(-c2ccccn2)n1)Nc1cccc(Cl)c1`: the EC50 is 10.3 µM (active) in experiment [4], 8.65 µM (active) in experiment [5] and 9 µM (active) in experiment [6]. For the same molecule, at Nonstructural protein 1, the IC50 is 8.24 µM (active). Besides, the AC50 was 2.9 µM (active) in experiment [7], 3.81 µM (active) in experiment [8] and 2.9 µM (active) in experiment [9].

For the molecule `CN(CCCNC(=O)c1cccc(N2CCCC2=O)c1)c1ccccc1`, in experiment [1], the AC50 was 0.823 µM (active).

`COCc1nnc(NC(=O)CSCc2ccccc2)s1`: the EC50 in [10] and in experiment [11] was > 112 µM (not active) each time.

For `CC(C)c1ccc(Nc2nnc(SCC(=O)c3nnc(-c4ccccc4)o3)s2)cc1`, the IC50 in experiment [12] is 2.72 µM (active).

For `O=[N+]([O-])c1ccc(Nc2ccc(N3CCOCC3)cc2)c([N+](=O)[O-])c1`, the IC50 at Nonstructural protein 1 was 71.6 µM (active).

With `O=c1[nH]c(CCl)nc2cc(-c3ccc(F)cc3)sc12`, the EC50 in experiment [3] is 32.1 µM (active); at Protein RecA, 5.66 µM (active). Moreover, in [13], the AC50 was 11.7 µM (active).

Consider `O=C1C(NS(=O)(=O)c2cccs2)=C(N2CCN(c3ccccc3)CC2)C(=O)c2ccccc21`, for which, at Nonstructural protein 1, the IC50 was 21.6 µM (active).

As to `Cc1ccc(NC(=O)N/C=C/c2ccco2)cc1C`, the AC50 was 1.7 µM (active) in experiment [1] and 12.6 µM (inconclusive) at Cytochrome P450 3A4.

Regarding `Cc1ccc(Cn2cc(S(=O)(=O)c3ccc(Cl)cc3)c(=O)c3cc(F)ccc32)cc1`, in experiment [3], the EC50 is > 260 µM (inactive).

Turning to `CNc1nc2c(N)ncnc2n1[C@H]1O[C@@H](CO)[C@H](O)[C@@H]1O`, the EC50 in experiment [10] was > 112 µM (not active); in [11], 1.36 µM (active).

Regarding `CN(C1=C(N2CCCCC2)C(=O)c2ccccc2C1=O)c1ccccc1`, on Nonstructural protein 1, the IC50 was 6.94 µM (active).

Regarding `OCCN1CCN(CC(O)COc2ccc(Cl)cc2)CC1` (stereo not given), the EC50 in experiment [10] and in [11] was > 112 µM (not active) in each case.

For `CC(C)(C)NC(=O)c1cccc(NC(=O)CSc2ccc(Cl)cc2)c1`, the EC50 in experiment [3] is > 260 µM (inactive).

For the molecule `CC(=O)NCCC(=O)Nc1sc2c(c1-c1nc3ccccc3[nH]1)CCCC2`, the AC50 in experiment [1] is 4.69 µM (active).

Turning to `Cc1oc(=O)c(NC(=O)c2ccccc2)cc1C(=O)c1ccccc1`, in the experiment “cells”, the IC50 was > 50 µM (active). For the same molecule, the AC50 on Cytochrome P450 2C19 is 8.91 µM (inconclusive).

Take `CCC(C)(C)c1ccc(OC(=O)c2cccnc2Cl)cc1`: the EC50 in experiment [3] was 46.8 µM (active).

Regarding `COc1ccc2cc(S(=O)(=O)N3CCCCC3)ccc2c1S(=O)(=O)N1CCCCC1`, the EC50 in experiment [3] is > 260 µM (inactive).

`Cc1ccc2c(CC(=O)N3CCN(S(=O)(=O)c4cccs4)CC3)coc2c1`: the EC50 in experiment [10] and in experiment [11] was > 112 µM (not active) each time.

Turning to `CCc1c(C)sc(NC(=O)c2ccc(Br)o2)c1C(=O)OC`, the EC50 in experiment [3] is > 260 µM (inactive).

With `COc1ccc(P(=O)(COc2ccc([N+](=O)[O-])cc2)c2ccc(OC)cc2)cc1`, the EC50 in [10] and in [11] was > 112 µM (not active) in each case.

With `CCOC(=O)c1c(O)nc2ccccc2c1N1CCCCC1`, the EC50 is reported as > 195 µM (not active) in [2], > 112 µM (not active) in [10] and > 112 µM (not active) in experiment [11].

With `CN(C)c1ccc(CN(C(=O)c2ccco2)C2CCS(=O)(=O)C2)cc1` (stereo not given), the AC50 in experiment [1] was 4.16 µM (active).

As for `CC(=O)c1ccc(OC(=O)c2ccc(-n3nc(C)cc3C)cc2)cc1`, the IC50 in the experiment “cells” was 7.6 µM (active).

Take `O=C1CSC(=S)N1N=Cc1ccccc1O`: the IC50 at Nonstructural protein 1 was 1.75 µM (active).

As to `CC(C(=O)Nc1cc([N+](=O)[O-])ccc1Cl)N1CCN(c2ccc(O)cc2)CC1` (stereo not given), the IC50 in experiment [12] was 4.33 µM (not active).
